Assay results from US8440628B2, “Medical compositions containing ghrelin” (Daiichi Sankyo Company, Limited, priority 2002, dated 2013).

Experiments:
[1] = Stability of human ghrelin in 0.1M HCl and Mcllvain buffer solutions of various pH at 25°C (Example 2, HPLC peak area ratio); assay type: physicochemical; details: human ghrelin 0.5 mg/mL in Mcllvain buffer
Method: Human ghrelin was dissolved in the following aqueous solutions in the concentration of about 0.15 μmol/mL (0.5 mg/mL).
0.1M HCl aqueous solution (pH: 1.1)
The pH was adjusted with 0.1M citric aqueous acid and 0.2M dibasic sodium phosphate aqueous solution.
Each solution were stored at 25±2° C. for 8, 24, 48 and 72 hours respectively, and the obtained solutions were detected by HPLC analysis in comparison to the solutions before storage. […] No significant changes of pH in solution before storage and after storage were observed.

[2] = Stability of human ghrelin in Britton-Robinson buffer solutions of various pH at 40°C (Example 3); assay type: physicochemical; details: pH of 3.1, 4.0, 5.0 and 6.0, 40±1°C, storage time not stated, target value 85%
Method: Human ghrelin, which is one of the ghrelins, was dissolved in the Britton-Robinson buffer solutions which is adjusted by combining 0.04M phosphoric acid-acetic acid-boric acid aqueous solution and 0.2M sodium hydrate aqueous solution in appropriate ratio, having pH of 2.1, 3.1, 4.0, 5.0, 6.0, 7.0 and 7.9 to obtain an aqueous solution containing human ghrelin in the concentration of about 0.15 μmol/mL (0.5 mg/mL). The obtained solution was filled in brownish glass ampoules and the ampoules were sealed with fire. For the calculation of kinetic constant, the certain degrees of degradation products have to be occurred in the aqueous solution of the ghrelins, and therefore, the ampoules were stored at 40±1° C., which was severe conditions for storage. The concentration (residual ratio) of human ghrelin was conducted by HPLC with time. At the same time, the pH of the solution was measured and it was confirmed that there was no significant changes of pH in solution.
The kinetic constants in each pH solution were calculated from the sequential change of the residual ratio, and the results were shown in FIG. 2.

## CCCCCCCC(=O)OC[C@H](NC(=O)[C@H](CO)NC(=O)CN)C(=O)N[C@@H](Cc1ccccc1)C(=O)N[C@@H](CC(C)C)C(=O)N[C@@H](CO)C(=O)N1CCC[C@H]1C(=O)N[C@@H](CCC(=O)O)C(=O)N[C@@H](Cc1c[nH]cn1)C(=O)N[C@@H](CCC(N)=O)C(=O)N[C@@H](CCCNC(=N)N)C(=O)N[C@H](C(=O)N[C@@H](CCC(N)=O)C(=O)N[C@@H](CCC(N)=O)C(=O)N[C@@H](CCCNC(=N)N)C(=O)N[C@@H](CCCCN)C(=O)N[C@@H](CCC(=O)O)C(=O)N[C@@H](CO)C(=O)N[C@@H](CCCCN)C(=O)N[C@@H](CCCCN)C(=O)N1CCC[C@H]1C(=O)N1CCC[C@H]1C(=O)N[C@@H](C)C(=O)N[C@@H](CCCCN)C(=O)N[C@@H](CC(C)C)C(=O)N[C@@H](CCC(N)=O)C(=O)N1CCC[C@H]1C(=O)N[C@@H](CCCNC(=N)N)C(=O)O)C(C)C [Human ghrelin]
[1]; pH 3, 25±2°C, 24 hr. after
  pH observed: 3.1
[1]; pH 3, 25±2°C, 48 hr. after
  Peak area ratio to total peak area: 98.40%
  pH observed: 3.1
[1]; pH 3, 25±2°C, 72 hr. after
  Peak area ratio to total peak area: 98.03%
  pH observed: 3.1
[1]; pH 3, 25±2°C, before storage
  Peak area ratio to total peak area: 99.07%
  pH observed: 3.0
[1]; pH 4, 25±2°C, 8 hr. after
  Peak area ratio to total peak area: 99.07%
  pH observed: 4.0
[1]; pH 4, 25±2°C, 24 hr. after
  Peak area ratio to total peak area: 98.92%
  pH observed: 4.0
[1]; pH 4, 25±2°C, 48 hr. after
  Peak area ratio to total peak area: 98.69%
  pH observed: 4.0
[1]; pH 4, 25±2°C, 72 hr. after
  Peak area ratio to total peak area: 98.44%
  pH observed: 4.0
[1]; pH 4, 25±2°C, before storage
  Peak area ratio to total peak area: 99.07%
  pH observed: 4.0
[1]; pH 5, 25±2°C, 8 hr. after
  Peak area ratio to total peak area: 99.04%
  pH observed: 5.0
[1]; pH 5, 25±2°C, 24 hr. after
  Peak area ratio to total peak area: 98.91%
  pH observed: 5.0
[1]; pH 5, 25±2°C, 48 hr. after
  Peak area ratio to total peak area: 98.59%
  pH observed: 5.0
[1]; pH 5, 25±2°C, 72 hr. after
  Peak area ratio to total peak area: 98.37%
  pH observed: 5.0
[1]; pH 5, 25±2°C, before storage
  Peak area ratio to total peak area: 99.06%
  pH observed: 5.0
[1]; pH 6, 25±2°C, 8 hr. after
  Peak area ratio to total peak area: 98.87%
  pH observed: 6.0
[1]; pH 6, 25±2°C, 24 hr. after
  Peak area ratio to total peak area: 98.28%
  pH observed: 6.0
[1]; pH 6, 25±2°C, 48 hr. after
  Peak area ratio to total peak area: 97.64%
  pH observed: 6.0
[1]; pH 6, 25±2°C, 48 hr. after, listed as human ghrelin
  Peak area ratio to total peak area: less than 98%
[1]; pH 6, 25±2°C, 72 hr. after
  Peak area ratio to total peak area: 96.92%
  pH observed: 6.0
[1]; pH 6, 25±2°C, before storage
  Peak area ratio to total peak area: 99.07%
  pH observed: 6.0
[1]; pH 7, 25±2°C, 8 hr. after
  Peak area ratio to total peak area: 98.15%
  pH observed: 7.0
[1]; pH 7, 25±2°C, 24 hr. after
  Peak area ratio to total peak area: 96.18%
  pH observed: 7.0
[1]; pH 7, 25±2°C, 24 hr. after, listed as human ghrelin
  Peak area ratio to total peak area: less than 98%
[1]; pH 7, 25±2°C, 48 hr. after
  Peak area ratio to total peak area: 93.44%
  pH observed: 7.0
[1]; pH 7, 25±2°C, 72 hr. after
  Peak area ratio to total peak area: 90.75%
  pH observed: 7.0
[1]; pH 7, 25±2°C, before storage
  Peak area ratio to total peak area: 98.97%
  pH observed: 7.0
[1]; pH 8, 25±2°C, 8 hr. after
  Peak area ratio to total peak area: 94.73%
  pH observed: 7.9
[1]; pH 8, 25±2°C, 24 hr. after
  Peak area ratio to total peak area: 87.32%
  pH observed: 7.9
[1]; pH 8, 25±2°C, 48 hr. after
  Peak area ratio to total peak area: 76.95%
  pH observed: 7.9
[1]; pH 8, 25±2°C, 72 hr. after
  Peak area ratio to total peak area: 68.30%
  pH observed: 7.9
[1]; pH 8, 25±2°C, before storage
  Peak area ratio to total peak area: 98.61%
  pH observed: 8.0
[2]
  Residual ratio: more than 87%
